Source: PMC8185074, “Anchor extension: a structure-guided approach to design cyclic peptides targeting enzyme active sites” (Nature Communications, 2021)
Several values for one entry are separate records, joined by “and”; a condition that tells them apart may be missing. Equal values may be shown once. Peptide text beside a SMILES is read from it.

Legend:
Format in all cases: biochemical
HDAC2 = target: T1, HDAC2 (Homo sapiens, UniProt Q92769); experiment: Initial HDAC2 IC50 estimate (BPS Biosciences HDAC fluorogenic assay kit); details: Supplementary Dataset 2; read-out: HDAC2 activity (initial activity)
T1 construct: purchased Reaction Biology Corporation (assay run by the CRO)
Summary of the method: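 Inhibition measured by kit-based fluorogenic HDAC activity assays, with each point in duplicate or triplicate. Values come from a full 1 µM–100 pM series (1:10 steps) or are range estimates from just 20 nM and 200 nM.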

HDAC6 = target: T2, HDAC6 (Homo sapiens, UniProt Q9UBN7); experiment: HDAC6 inhibition, full IC50 measurement (Reaction Biology; fluorogenic p53 peptide RHKK(Ac)AMC)
T2 construct: purchased Reaction Biology Corporation (assay run by the CRO)
T2 sequence (Q9UBN7 1-1215): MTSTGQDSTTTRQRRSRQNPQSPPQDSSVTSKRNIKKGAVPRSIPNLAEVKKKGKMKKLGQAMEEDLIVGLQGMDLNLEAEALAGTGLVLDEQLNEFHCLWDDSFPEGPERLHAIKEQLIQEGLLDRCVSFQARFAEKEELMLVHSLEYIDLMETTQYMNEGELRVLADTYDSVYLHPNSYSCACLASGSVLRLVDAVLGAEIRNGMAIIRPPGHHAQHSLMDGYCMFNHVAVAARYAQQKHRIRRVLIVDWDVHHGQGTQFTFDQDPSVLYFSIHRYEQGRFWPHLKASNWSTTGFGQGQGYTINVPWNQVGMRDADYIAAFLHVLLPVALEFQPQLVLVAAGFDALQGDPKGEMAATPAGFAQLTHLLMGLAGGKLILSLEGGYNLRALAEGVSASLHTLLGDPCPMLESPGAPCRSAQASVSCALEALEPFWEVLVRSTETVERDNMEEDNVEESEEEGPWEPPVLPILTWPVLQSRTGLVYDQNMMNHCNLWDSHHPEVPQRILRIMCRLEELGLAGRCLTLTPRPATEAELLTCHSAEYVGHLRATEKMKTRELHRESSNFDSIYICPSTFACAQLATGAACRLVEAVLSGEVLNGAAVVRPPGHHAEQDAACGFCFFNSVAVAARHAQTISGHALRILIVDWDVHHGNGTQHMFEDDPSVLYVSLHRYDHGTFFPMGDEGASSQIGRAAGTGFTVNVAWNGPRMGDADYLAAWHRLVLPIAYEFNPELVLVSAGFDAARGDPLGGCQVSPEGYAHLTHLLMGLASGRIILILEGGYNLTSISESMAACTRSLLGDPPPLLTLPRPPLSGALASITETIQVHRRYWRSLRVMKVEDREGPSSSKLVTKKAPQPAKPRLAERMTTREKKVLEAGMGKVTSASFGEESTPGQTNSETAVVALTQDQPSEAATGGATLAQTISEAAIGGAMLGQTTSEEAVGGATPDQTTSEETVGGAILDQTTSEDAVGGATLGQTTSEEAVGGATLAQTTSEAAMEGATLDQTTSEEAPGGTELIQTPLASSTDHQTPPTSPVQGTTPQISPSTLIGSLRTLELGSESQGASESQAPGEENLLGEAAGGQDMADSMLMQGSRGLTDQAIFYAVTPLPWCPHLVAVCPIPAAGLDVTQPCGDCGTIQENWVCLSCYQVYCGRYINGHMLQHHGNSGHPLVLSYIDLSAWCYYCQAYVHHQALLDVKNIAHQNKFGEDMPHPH
Summary of the method: (§1)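 Reaction: enzyme plus acoustically dispensed peptide inhibitor, 50 μM RHKK(Ac)AMC substrate, pH 8.0 Tris buffer with BSA and 1% DMSO, 1 h, 30 °C. Duplicates averaged.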

HDAC3 = target: T3, HDAC3 (Homo sapiens, UniProt O15379); experiment: HDAC3 inhibition, full IC50 measurement (Reaction Biology; fluorogenic p53 peptide RHKK(Ac)AMC)
T3 construct: purchased Reaction Biology Corporation (assay run by the CRO)
Summary of the method: as §1

T3 sequence (O15379 whole entry): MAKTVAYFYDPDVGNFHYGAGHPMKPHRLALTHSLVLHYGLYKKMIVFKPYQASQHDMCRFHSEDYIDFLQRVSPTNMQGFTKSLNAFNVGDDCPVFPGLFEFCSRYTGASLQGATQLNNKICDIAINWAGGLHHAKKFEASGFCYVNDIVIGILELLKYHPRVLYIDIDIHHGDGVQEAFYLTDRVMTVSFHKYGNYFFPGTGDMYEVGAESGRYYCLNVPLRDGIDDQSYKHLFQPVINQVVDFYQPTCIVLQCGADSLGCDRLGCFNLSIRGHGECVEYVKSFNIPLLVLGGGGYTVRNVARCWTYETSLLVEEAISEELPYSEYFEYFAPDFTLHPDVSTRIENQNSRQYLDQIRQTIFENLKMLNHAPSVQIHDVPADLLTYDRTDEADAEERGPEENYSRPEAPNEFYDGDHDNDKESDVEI
T3 sequence (Q9Y618 395-489 partner limits assumed): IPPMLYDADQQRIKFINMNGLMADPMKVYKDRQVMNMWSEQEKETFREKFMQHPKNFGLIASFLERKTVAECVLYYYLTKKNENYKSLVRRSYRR
T1 sequence (Q92769 whole entry): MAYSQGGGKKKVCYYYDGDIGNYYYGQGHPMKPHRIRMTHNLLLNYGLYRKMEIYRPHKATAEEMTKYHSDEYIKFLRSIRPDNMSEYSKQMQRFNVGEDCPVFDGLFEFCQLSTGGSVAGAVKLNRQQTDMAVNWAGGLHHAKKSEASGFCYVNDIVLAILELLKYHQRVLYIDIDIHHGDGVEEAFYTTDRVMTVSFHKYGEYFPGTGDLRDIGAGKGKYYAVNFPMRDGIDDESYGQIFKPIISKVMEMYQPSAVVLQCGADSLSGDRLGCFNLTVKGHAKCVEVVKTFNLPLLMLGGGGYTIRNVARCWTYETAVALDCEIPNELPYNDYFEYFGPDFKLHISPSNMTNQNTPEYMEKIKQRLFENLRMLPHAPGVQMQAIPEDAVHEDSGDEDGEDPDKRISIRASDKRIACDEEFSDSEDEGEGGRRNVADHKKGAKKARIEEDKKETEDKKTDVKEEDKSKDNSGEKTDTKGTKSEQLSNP

## CCCC[C@H]1NC(=O)[C@H](Cc2ccccc2)NC(=O)[C@H](CCCCCS)NC(=O)[C@@H](CCCNC(=N)N)NC(=O)[C@H](CC(=O)O)NC(=O)[C@@H](CO)NC(=O)[C@@H](C)NC(=O)[C@H](CCCCN)NC1=O [des4.3.1, SHA-Phe-dNle-Lys-dAla-dSer-Asp-dArg] (HELM PEPTIDE1{D.[dR].[O=C([C@H](CCCCCS)N[*:1])[*:2]].F.[CCCC[C@@H](N[*:1])C(=O)[*:2]].K.[dA].[dS]}$PEPTIDE1,PEPTIDE1,1:R1-8:R2$$$V2.0)
HDAC2
  IC50: 350 nM
HDAC6
  6-Selectivity: fold potency for HDAC6 over HDAC2: 88.2 fold and 88 fold
HDAC6; Conc. 1.00E-05 M, t1
  HDAC6 activity raw data (signal): 5754
HDAC6; Conc. 1.00E-05 M, t2
  HDAC6 activity raw data (signal): 4634
HDAC6; Conc. 1.11E-06 M, t1
  HDAC6 activity raw data (signal): 10293
HDAC6; Conc. 1.11E-06 M, t2
  HDAC6 activity raw data (signal): 17466
HDAC6; Conc. 1.23E-07 M, t1
  HDAC6 activity raw data (signal): 97345
HDAC6; Conc. 1.23E-07 M, t2
  HDAC6 activity raw data (signal): 90888
HDAC6; Conc. 1.37E-08 M, t1
  HDAC6 activity raw data (signal): 307015
HDAC6; Conc. 1.37E-08 M, t2
  HDAC6 activity raw data (signal): 326589
HDAC6; Conc. 1.52E-09 M, t1
  HDAC6 activity raw data (signal): 510826
HDAC6; Conc. 1.52E-09 M, t2
  HDAC6 activity raw data (signal): 490649
HDAC6; Conc. 3.33E-06 M, t1
  HDAC6 activity raw data (signal): 6046
HDAC6; Conc. 3.33E-06 M, t2
  HDAC6 activity raw data (signal): 6920
HDAC6; Conc. 3.70E-07 M, t1
  HDAC6 activity raw data (signal): 48261
HDAC6; Conc. 3.70E-07 M, t2
  HDAC6 activity raw data (signal): 37034
HDAC6; Conc. 4.12E-08 M, t1
  HDAC6 activity raw data (signal): 179198
HDAC6; Conc. 4.12E-08 M, t2
  HDAC6 activity raw data (signal): 202702
HDAC6; Conc. 4.57E-09 M, t1
  HDAC6 activity raw data (signal): 433664
HDAC6; Conc. 4.57E-09 M, t2
  HDAC6 activity raw data (signal): 442171
HDAC6; Conc. 5.08E-10 M, t1
  HDAC6 activity raw data (signal): 531205
HDAC6; Conc. 5.08E-10 M, t2
  HDAC6 activity raw data (signal): 556727
HDAC6; figure legends, Supp. Tables 1 and 8, read-out: HDAC6 IC50
  IC50: 17.1 nM
HDAC3; Conc. 1.00E-05 M, t1
  HDAC3 activity raw data (signal): 46115
HDAC3; Conc. 1.00E-05 M, t2
  HDAC3 activity raw data (signal): 35378
HDAC3; Conc. 1.11E-06 M, t1
  HDAC3 activity raw data (signal): 372696
HDAC3; Conc. 1.11E-06 M, t2
  HDAC3 activity raw data (signal): 416274
HDAC3; Conc. 1.23E-07 M, t1
  HDAC3 activity raw data (signal): 1045370
HDAC3; Conc. 1.23E-07 M, t2
  HDAC3 activity raw data (signal): 1070696
HDAC3; Conc. 1.37E-08 M, t1
  HDAC3 activity raw data (signal): 1250439
HDAC3; Conc. 1.37E-08 M, t2
  HDAC3 activity raw data (signal): 1300529
HDAC3; Conc. 1.52E-09 M, t1
  HDAC3 activity raw data (signal): 1121419
HDAC3; Conc. 1.52E-09 M, t2
  HDAC3 activity raw data (signal): 1274974
HDAC3; Conc. 3.33E-06 M, t1
  HDAC3 activity raw data (signal): 172249
HDAC3; Conc. 3.33E-06 M, t2
  HDAC3 activity raw data (signal): 152173
HDAC3; Conc. 3.70E-07 M, t1
  HDAC3 activity raw data (signal): 787295
HDAC3; Conc. 3.70E-07 M, t2
  HDAC3 activity raw data (signal): 779442
HDAC3; Conc. 4.12E-08 M, t1
  HDAC3 activity raw data (signal): 1318255
HDAC3; Conc. 4.12E-08 M, t2
  HDAC3 activity raw data (signal): 1249169
HDAC3; Conc. 4.57E-09 M, t1
  HDAC3 activity raw data (signal): 1278679
HDAC3; Conc. 4.57E-09 M, t2
  HDAC3 activity raw data (signal): 1136444
HDAC3; Conc. 5.08E-10 M, t1
  HDAC3 activity raw data (signal): 1099296
HDAC3; Conc. 5.08E-10 M, t2
  HDAC3 activity raw data (signal): 1140869
